Target: Thrombin (Homo sapiens, UniProt P00734)
Experiment: Thrombin inhibition in vitro (Kiapp)
Assay type: biochemical
Experimental: The inhibitory potency of Compound 1 on thrombin was tested in vitro.

- Ki (in vitro, FIG. 1, read-out: inhibition constant (thrombin)): 1 nM
- potency relative to argatroban (thrombin inhibition) (ratio of inhibition constants vs argatroban): about 10 fold
Compound: CNC(=O)[C@@H]1CN(C(=O)[C@H](Cc2ccccc2CNC(=N)N)NC(=O)N(C)[C@H]2CCOc3ccccc32)C[C@H]1c1ccc(OC)cc1 [Compound 1]

— US12630506B2, “Direct thrombin inhibitors and methods of use thereof” (Baylor College of Medicine, priority 2020, dated 2026)
